± gives the standard deviation of the averaged measurements.
How the values were obtained:
Experiment in all cases: level (log10 ratio to DMSO vehicle control); higher = higher biomarker level / cell amount than vehicle control
[1] = compound: O=C(O)C(F)(F)C(F)(F)C(F)(F)C(F)(F)C(F)(F)C(F)(F)C(F)(F)F [Perfluorooctanoic acid]; details: in DMSO
Method: (§1)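 BioMAP Diversity Plus panel of 12 human primary cell co-culture systems (3C, 4H, LPS, SAg, BT, BF4T, BE3C, CASM3C, HDF3CGF, KF3CT, MyoF, Mphg). Compounds were added 1 h before stimulation and left for 24 h (MyoF 48 h; BT 72 h for soluble read-outs or 6 d for IgG). Biomarkers were read by ELISA, cytotoxicity by SRB, PBMC viability and proliferation by Alamar Blue. Each well value was divided by the mean of 8 DMSO control wells on the same plate and log10 transformed; duplicate blinded samples were tested at 4 concentrations.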

[2] = compound: C=CC(=O)OCC(F)(F)C(F)(F)C(F)(F)C(F)(F)COC(=O)C=C [1H,1H,6H,6H-Perfluorohexane-1,6-diol diacrylate]; details: 6700 nM; in DMSO
Method: as §1

[3] = compound: O=S(=O)(OCC(F)(F)F)C(F)(F)C(F)(F)C(F)(F)C(F)(F)F [2,2,2-Trifluoroethyl perfluorobutanesulfonate]; details: in DMSO
Method: as §1

[4] = compound: OCCC(F)(F)C(F)(F)C(F)(F)C(F)(F)C(F)(F)C(F)(F)C(F)(F)C(F)(F)F [8:2 Fluorotelomer alcohol]; details: 6700 nM; in DMSO
Method: as §1

[5] = compound: FC(F)(I)C(F)(F)C(F)(F)C(F)(F)C(F)(F)C(F)(F)I [1,6-Diiodoperfluorohexane]; details: 6700 nM; in DMSO
Method: as §1

[6] = compound: C=C(C)C(=O)OCC(F)(F)C(F)(F)C(F)(F)F [2,2,3,3,4,4,4-Heptafluorobutyl methacrylate]; details: in DMSO
Method: as §1

[7] = compound: O=C(Cl)C(F)(F)C(F)(F)C(F)(F)C(=O)Cl [Hexafluoroglutaryl chloride]; details: in DMSO
Method: as §1

[8] = compound: O=C(O)C(F)(F)C(F)(F)C(F)(F)C(F)(F)C(F)(F)C(F)(F)C(F)(F)F [Ammonium perfluorooctanoate]; details: in DMSO
Method: as §1

Row | Test System | level (log10) ([1]; 6700 nM) | level (log10) ([1]; 20000 nM) | level (log10) ([1]; 60000 nM) | level (log10) [2] | level (log10) ([3]; 6700 nM) | level (log10) ([3]; 20000 nM) | level (log10) ([3]; 60000 nM) | level (log10) [4] | level (log10) [5] | level (log10) ([6]; 6700 nM) | level (log10) ([6]; 20000 nM) | level (log10) ([6]; 60000 nM) | level (log10) ([7]; 6700 nM) | level (log10) ([7]; 20000 nM) | level (log10) ([7]; 60000 nM) | level (log10) ([8]; 6700 nM) | level (log10) ([8]; 20000 nM) | level (log10) ([8]; 60000 nM)
1 | SAg:PBMC Cytotoxicity | 0.0195 ± 0.0021 | 0.022 ± 0.0085 | 0.042 ± 0.016 | -0.066 ± 0.038 | 0.0065 ± 0.011 | -0.013 | 0.012 ± 0.0057 | -0.0295 ± 0.012 | 0.026 | -0.0105 ± 0.037 | 0.015 ± 0.011 | 0.0075 ± 0.044 | 0.0075 ± 0.0078 | -0.022 ± 0.018 | 0.0185 ± 0.021 | 0.011 ± 0.035 | 0.049 ± 0.011 | 0.052 ± 0.04
2 | SAg:CD69 | -0.0095 ± 0.0035 | -0.0265 ± 0.011 | -0.0355 ± 0.016 | -0.0645 ± 0.029 | -0.0025 ± 0.0092 | -0.0175 ± 0.025 | -0.049 ± 0.042 | -0.018 ± 0.018 | -0.026 | -0.016 ± 0.0099 | -0.0215 ± 0.0021 | -0.009 ± 0.0042 | -0.009 ± 0.021 | -0.02 ± 0.018 | -0.015 ± 0.0028 | -0.0115 ± 0.00071 | -0.026 ± 0.0014 | -0.062 ± 0.0085
3 | BF4T:IL-1alpha | -0.009 ± 0.0057 | -0.0125 ± 0.018 | -0.0055 ± 0.018 | -0.0155 ± 0.025 | 0.0195 ± 0.023 | 0.0085 ± 0.026 | 0.0075 ± 0.015 | 0.005 | -0.017 | -0.005 ± 0.014 | -0.009 ± 0.0014 | 0.002 ± 0.025 | -0.014 ± 0.04 | -0.015 ± 0.018 | 0.0015 ± 0.0064 | -0.02 ± 0.014 | -0.0235 ± 0.0035 | -0.0365 ± 0.015
4 | BF4T:SRB | -0.008 ± 0.0099 | 0.0015 ± 0.0064 | -0.0005 ± 0.013 | -0.01 ± 0.0014 | 0.005 ± 0.0042 | 0.002 ± 0.0028 | 0.0055 ± 0.0021 | -0.0095 ± 0.0035 | -0.016 | -0.003 ± 0.0042 | -0.011 ± 0.0071 | 0.0315 ± 0.039 | -0.015 ± 0.0099 | -0.0115 ± 0.0035 | -0.0195 ± 0.0035 | -0.0085 ± 0.005 | -0.002 ± 0.0042 | 0.0005 ± 0.016
5 | LPS:SRB | -0.01 ± 0.011 | 0.0085 ± 0.012 | -0.0265 ± 0.0064 | -0.0065 ± 0.0092 | 0.007 ± 0.0014 | -0.0035 ± 0.0092 | -0.004 ± 0.0071 | -0.0125 ± 0.011 | 0.012 | -0.012 ± 0.0014 | -0.0075 ± 0.0021 | 0.002 ± 0.0042 | -0.0075 ± 0.0064 | 0.0015 ± 0.012 | 0.003 ± 0.0014 | -0.006 ± 0.0071 | -0.0065 ± 0.00071 | -0.0245 ± 0.005
6 | LPS:CD141/Thrombomodulin | 0.068 ± 0.076 | 0.0185 ± 0.077 | 0 ± 0.03 | -0.0375 ± 0.013 | -0.0075 ± 0.03 | 0.0145 ± 0.04 | 0.067 ± 0.025 | -0.0605 ± 0.14 | 0.007 | 0.001 ± 0.05 | -0.0015 ± 0.005 | -0.0185 ± 0.019 | -0.0035 ± 0.066 | -0.017 ± 0.028 | -0.017 ± 0.021 | 0.0135 ± 0.025 | 0.0105 ± 0.013 | -0.004 ± 0.016
7 | SAg:CD38 | -0.008 ± 0.0085 | -0.012 ± 0.023 | -0.0405 ± 0.0064 | -0.0305 ± 0.0078 | -0.0185 ± 0.0092 | -0.012 ± 0.0071 | -0.0475 ± 0.032 | -0.004 | -0.008 | -0.0015 ± 0.03 | 0.007 ± 0.048 | 0.013 ± 0.068 | -0.021 ± 0.025 | -0.031 ± 0.034 | -0.031 ± 0.055 | -0.011 ± 0.018 | -0.0055 ± 0.0064 | -0.051 ± 0.017
8 | LPS:CXCL8/IL-8 | 0.0155 ± 0.021 | 0.033 ± 0.014 | 0.146 ± 0.057 | -0.0205 ± 0.028 | -0.004 ± 0.034 | -0.002 ± 0.0099 | -0.0205 ± 0.026 | -0.0375 ± 0.029 | 0.002 | -0.001 ± 0.016 | 0.0055 ± 0.012 | 0.0145 ± 0.0092 | -0.0295 ± 0.00071 | 0 ± 0.037 | -0.0035 ± 0.043 | 0.017 ± 0.0042 | 0.038 ± 0.013 | 0.047 ± 0.027
9 | BE3C:CD54/ICAM-1 | -0.02 ± 0.0085 | -0.0085 ± 0.0035 | 0.0235 ± 0.039 | -0.021 ± 0.024 | -0.002 ± 0.0071 | -0.013 ± 0.0071 | -0.018 ± 0.0057 | 0.001 ± 0.0099 | 0.001 | 0.009 ± 0.023 | -0.004 ± 0.034 | 0.005 ± 0.0014 | 0.002 ± 0.0071 | -0.002 ± 0.017 | 0.0075 ± 0.025 | -0.01 ± 0.014 | -0.0085 ± 0.0021 | -0.0015 ± 0.015
10 | 3C:HLA-DR | 0.0035 ± 0.0092 | -0.008 ± 0.028 | 0.0155 ± 0.043 | -0.025 ± 0.011 | -0.01 ± 0.011 | -0.0135 ± 0.0092 | -0.032 ± 0.0014 | -0.0245 ± 0.018 | -0.005 | -0.01 ± 0.013 | -0.0055 ± 0.0078 | 0.001 ± 0.0042 | -0.008 ± 0.023 | -0.006 ± 0.013 | -0.0085 ± 0.0035 | -0.005 ± 0.0042 | 0 ± 0.0014 | 0.004 ± 0.016
11 | LPS:IL-1alpha | 0.0135 ± 0.0035 | -0.0205 ± 0.043 | -0.007 ± 0.017 | -0.0065 ± 0.015 | -0.061 ± 0.079 | -0.104 ± 0.041 | -0.172 ± 0.052 | -0.015 ± 0.013 | -0.016 | -0.04 ± 0.0057 | -0.0105 ± 0.011 | 0.042 ± 0.0014 | -0.0955 ± 0.022 | -0.115 ± 0.015 | -0.057 ± 0.027 | 0.019 ± 0.0042 | 0.0045 ± 0.00071 | -0.034 ± 0.024
12 | BE3C:IL-1alpha | 0.0075 ± 0.00071 | -0.0035 ± 0.0035 | 0.0185 ± 0.016 | -0.0735 ± 0.03 | 0.0045 ± 0.011 | 0.0025 ± 0.0078 | 0.015 ± 0.013 | -0.014 ± 0.0014 | -0.004 | -0.003 ± 0.017 | -0.019 ± 0.0057 | -0.007 ± 0.011 | -0.014 ± 0.025 | -0.017 ± 0.0042 | 0.0025 ± 0.005 | -0.008 ± 0.024 | -0.019 ± 0.021 | -0.028 ± 0.011
13 | BF4T:CD106/VCAM-1 | -0.037 ± 0.017 | -0.0345 ± 0.032 | 0 ± 0.065 | -0.132 ± 0.016 | -0.0135 ± 0.07 | -0.0035 ± 0.074 | -0.049 ± 0.027 | -0.0905 ± 0.023 | -0.041 | 0.009 ± 0.013 | -0.021 ± 0.011 | -0.0245 ± 0.0035 | -0.0385 ± 0.039 | -0.022 ± 0.058 | -0.058 ± 0.0085 | -0.0315 ± 0.021 | -0.0315 ± 0.0064 | -0.032 ± 0.017
14 | SAg:CCL2/MCP-1 | 0.0005 ± 0.0021 | 0.0025 ± 0.011 | 0.048 ± 0.0057 | -0.0875 ± 0.04 | 0.0045 ± 0.0064 | 0.0045 ± 0.019 | 0.0405 ± 0.033 | 0.0025 ± 0.0035 | 0.001 | 0.0075 ± 0.012 | -0.011 ± 0.0028 | 0.017 ± 0.011 | -0.02 ± 0.017 | -0.004 ± 0.041 | 0.017 ± 0.051 | -0.0035 ± 0.0035 | -0.007 ± 0.011 | 0.01 ± 0.034
15 | 4H:CD87/uPAR | -0.0695 ± 0.053 | -0.0395 ± 0.1 | -0.083 ± 0.048 | -0.04 ± 0.027 | 0.0005 ± 0.011 | 0.001 ± 0.0099 | -0.0095 ± 0.039 | -0.069 ± 0.025 | -0.009 | 0.035 ± 0.03 | 0.012 ± 0.0014 | 0.055 ± 0.048 | 0.0165 ± 0.0035 | 0.0115 ± 0.03 | 0.004 ± 0.018 | 0.0015 ± 0.028 | 0.026 ± 0.0057 | 0.034 ± 0.023
16 | BE3C:CXCL9/MIG | -0.0025 ± 0.0035 | -0.0045 ± 0.005 | 0.002 ± 0.018 | -0.0075 ± 0.011 | 0.031 ± 0.0085 | 0.0065 ± 0.0078 | 0.0135 ± 0.0021 | -0.0095 ± 0.00071 | 0.01 | 0.003 ± 0.0085 | 0.0025 ± 0.0035 | 0.01 ± 0.0071 | 0.018 ± 0.011 | 0.007 ± 0.0099 | 0.0065 ± 0.022 | 0.008 ± 0.011 | -0.003 ± 0.0042 | -0.003 ± 0.0028
